Test results from patent US20200016159A1, “N3-CYCLICALLY SUBSTITUTED THIENOURACILS AND USE THEREOF” (Bayer Aktiengesellschaft, priority 2016, published 2020).
pIC50: −log10 of the molar value.

Target: T1, human adenosine A2b receptor (Homo sapiens, UniProt P29275)
T1 sequence (P29275 1-332): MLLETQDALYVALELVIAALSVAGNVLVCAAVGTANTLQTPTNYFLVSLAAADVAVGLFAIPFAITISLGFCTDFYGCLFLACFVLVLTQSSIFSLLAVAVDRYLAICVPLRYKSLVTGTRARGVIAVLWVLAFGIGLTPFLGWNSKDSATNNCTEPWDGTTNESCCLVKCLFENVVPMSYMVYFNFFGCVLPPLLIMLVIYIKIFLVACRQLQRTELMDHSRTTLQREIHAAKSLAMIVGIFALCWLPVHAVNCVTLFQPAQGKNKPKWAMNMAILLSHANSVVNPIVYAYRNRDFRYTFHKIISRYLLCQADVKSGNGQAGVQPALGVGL
Assay: Cellular in vitro reporter gene test for A2b receptor activity (antagonism of NECA)
Format: cell-based
Set-up: expressed in transfected cells; host or cells: CHO-K1 (Chinese hamster ovary) with CRE-luciferase reporter
Details: recombinant CHO-K1 cells, CRE-luciferase reporter, co-incubation with EC50 concentration of NECA, 3 hours
Procedure, shortened: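 CHO-K1 cells expressing recombinant human A2b receptor plus a CRE-driven firefly luciferase reporter. Compounds co-incubated with NECA at its same-day EC50 concentration; luminescence read 3 hours after NECA addition. IC50 values, sometimes means of several determinations rounded to two significant figures.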

Row | SMILES | pIC50
1 | Cc1c(Cn2cc[nH]c2=O)sc2c1c(=O)n(C1CC1C)c(=O)n2CCOC(F)(F)F (single isomer, unassigned) [Example 272, 5-Methyl-3-(2-methylcyclopropyl)-6-[(2-oxo-2,3-dihydro-1H-imidazol-1-yl)methyl]-1-[2-(trifluoromethoxy)ethyl]thieno[2,3-d]pyrimidine-2,4(1H,3H)-dione] | 9.00
2 | Cc1c(CN2CCNC2=O)sc2c1c(=O)n(C1CC1C)c(=O)n2CCSC(F)(F)F (single isomer, unassigned) [Example 281, 5-Methyl-3-(2-methylcyclopropyl)-6-[(2-oxoimidazolidin-1-yl)methyl]-1-{2-[(trifluoromethyl)sulfanyl]ethyl}thieno[2,3-d]pyrimidine-2,4(1H,3H)-dione] | 8.68
3 | Cc1c(CN2CCNC2=O)sc2c1c(=O)n([C@H]1C[C@@H]1C)c(=O)n2CC1CCO1 (single isomer, unassigned) [Example 284] | 8.07
4 | Cc1c(CN2CCNC2=O)sc2c1c(=O)n(C1CC1C)c(=O)n2C[C@H]1CCCO1 (single isomer, unassigned) [Example 287] | 8.55
5 | Cc1c(CN2CCNC2=O)sc2c1c(=O)n(C1CC1C)c(=O)n2C[C@H]1CCCO1 (single isomer, unassigned) [Example 288] | 7.33
6 | Cc1c(CN2CCNC2=O)sc2c1c(=O)n(C1CC1C)c(=O)n2CC1CCOC1 (single isomer, unassigned) [Example 291, 5-Methyl-3-(2-methylcyclopropyl)-6-[(2-oxoimidazolidin-1-yl)methyl]-1-(tetrahydrofuran-3-ylmethyl)thieno[2,3-d]pyrimidine-2,4(1H,3H)-dione] | 7.72
7 | COCCn1c(=O)n(C2CC2C(F)(F)F)c(=O)c2c(C)c(CN3CCNC3=O)sc21 (single isomer, unassigned) [Example 296, 1-(2-Methoxyethyl)-5-methyl-6-[(2-oxoimidazolidin-1-yl)methyl]-3-[2-(trifluoromethyl)cyclopropyl]thieno[2,3-d]pyrimidine-2,4(1H,3H)-dione] | 7.80
8 | CCC1CC1n1c(=O)c2c(C)c(CN3CCNC3=O)sc2n(CCOC)c1=O (single isomer, unassigned) [Example 302, 3-(2-Ethylcyclopropyl)-1-(2-methoxyethyl)-5-methyl-6-[(2-oxoimidazolidin-1-yl)methyl]thieno[2,3-d]pyrimidine-2,4(1H,3H)-dione] | 8.00
9 | CCC1CC1n1c(=O)c2c(C)c(Cn3nc[nH]c3=O)sc2n(CCOC)c1=O (single isomer, unassigned) [Example 305, 3-(2-Ethylcyclopropyl)-1-(2-methoxyethyl)-5-methyl-6-[(5-oxo-4,5-dihydro-H-1,2,4-triazol-1-yl)methyl]thieno[2,3-d]pyrimidine-2,4(1H,3H)-dione] | 6.92
10 | COCCn1c(=O)n(C2CC2OC)c(=O)c2c(C)c(CN3CCNC3=O)sc21 (single isomer, unassigned) [Example 307, 3-(2-Methoxycyclopropyl)-1-(2-methoxyethyl)-5-methyl-6-[(2-oxoimidazolidin-1-yl)methyl]thieno[2,3-d]pyrimidine-2,4(1H,3H)-dione] | 8.09
11 | COCCn1c(=O)n(C2CC2OC)c(=O)c2c(C)c(CN3CCNC3=O)sc21 (single isomer, unassigned) [Example 308, 3-(2-Methoxycyclopropyl)-1-(2-methoxyethyl)-5-methyl-6-[(2-oxoimidazolidin-1-yl)methyl]thieno[2,3-d]pyrimidine-2,4(1H,3H)-dione] | 6.06

Now from value to compound:

Row | pIC50 | SMILES
12 | 7.07 | Cc1c(Cn2[nH]ccc2=O)sc2c1c(=O)n(C1CC1C)c(=O)n2CCOC(F)(F)F (single isomer, unassigned) [Example 274, 5-Methyl-3-(2-methylcyclopropyl)-6-[(5-oxo-2,5-dihydro-1H-pyrazol-1-yl)methyl]-1-[2-(trifluoromethoxy)ethyl]thieno[2,3-d]pyrimidine-2,4(1H,3H)-dione]
13 | 7.20 | Cc1c(Cn2[nH]ccc2=O)sc2c1c(=O)n(C1CC1C)c(=O)n2CCOC(F)(F)F (single isomer, unassigned) [Example 275, 5-Methyl-3-(2-methylcyclopropyl)-6-[(5-oxo-2,5-dihydro-1H-pyrazol-1-yl)methyl]-1-[2-(trifluoromethoxy)ethyl]thieno[2,3-d]pyrimidine-2,4(1H,3H)-dione]
14 | 8.41 | Cc1c(Cn2nc[nH]c2=O)sc2c1c(=O)n(C1CC1C)c(=O)n2CCOC(F)(F)F (single isomer, unassigned) [Example 277, 5-Methyl-3-(2-methylcyclopropyl)-6-[(5-oxo-4,5-dihydro-1H-1,2,4-triazol-1-yl)methyl]-1-[2-(trifluoromethoxy)ethyl]thieno[2,3-d]pyrimidine-2,4(1H,3H)-dione]
15 | 8.80 | Cc1c(Cn2nc[nH]c2=O)sc2c1c(=O)n(C1CC1C)c(=O)n2CCOC(F)(F)F (single isomer, unassigned) [Example 278, 5-Methyl-3-(2-methylcyclopropyl)-6-[(5-oxo-4,5-dihydro-1H-1,2,4-triazol-1-yl)methyl]-1-[2-(trifluoromethoxy)ethyl]thieno[2,3-d]pyrimidine-2,4(1H,3H)-dione]
16 | 8.47 | Cc1c(CN2CCNC2=O)sc2c1c(=O)n(C1CC1C)c(=O)n2CCSC(F)(F)F (single isomer, unassigned) [Example 280, 5-Methyl-3-(2-methylcyclopropyl)-6-[(2-oxoimidazolidin-1-yl)methyl]-1-{2-[(trifluoromethyl)sulfanyl]ethyl}thieno[2,3-d]pyrimidine-2,4(1H,3H)-dione]
17 | 7.60 | Cc1c(CN2CCNC2=O)sc2c1c(=O)n([C@H]1C[C@@H]1C)c(=O)n2CC1CCO1 (single isomer, unassigned) [Example 283]
18 | 6.57 | Cc1c(CN2CCNC2=O)sc2c1c(=O)n(C1CC1C)c(=O)n2CC1CCOC1 (single isomer, unassigned) [Example 290, 5-Methyl-3-(2-methylcyclopropyl)-6-[(2-oxoimidazolidin-1-yl)methyl]-1-(tetrahydrofuran-3-ylmethyl)thieno[2,3-d]pyrimidine-2,4(1H,3H)-dione]
19 | 6.82 | Cc1c(CN2CCNC2=O)sc2c1c(=O)n(C1CC1C)c(=O)n2CC1CCOC1 (single isomer, unassigned) [Example 292, 5-Methyl-3-(2-methylcyclopropyl)-6-[(2-oxoimidazolidin-1-yl)methyl]-1-(tetrahydrofuran-3-ylmethyl)thieno[2,3-d]pyrimidine-2,4(1H,3H)-dione]
20 | 7.92 | Cc1c(CN2CCNC2=O)sc2c1c(=O)n(C1CC1C)c(=O)n2CC1CCOC1 (single isomer, unassigned) [Example 293, 5-Methyl-3-(2-methylcyclopropyl)-6-[(2-oxoimidazolidin-1-yl)methyl]-1-(tetrahydrofuran-3-ylmethyl)thieno[2,3-d]pyrimidine-2,4(1H,3H)-dione]
21 | 6.92 | COCCn1c(=O)n(C2CC2C(F)(F)F)c(=O)c2c(C)c(CN3CCNC3=O)sc21 (single isomer, unassigned) [Example 295, 1-(2-Methoxyethyl)-5-methyl-6-[(2-oxoimidazolidin-1-yl)methyl]-3-[2-(trifluoromethyl)cyclopropyl]thieno[2,3-d]pyrimidine-2,4(1H,3H)-dione]
22 | 5.74 | COCCn1c(=O)n(C2CC2C(F)(F)F)c(=O)c2c(C)c(Cn3nc[nH]c3=O)sc21 (single isomer, unassigned) [Example 298, 1-(2-Methoxyethyl)-5-methyl-6-[(5-oxo-4,5-dihydro-1H-1,2,4-triazol-1-yl)methyl]-3-[2-(trifluoromethyl)cyclopropyl]thieno[2,3-d]pyrimidine-2,4(1H,3H)-dione]
23 | 6.66 | COCCn1c(=O)n(C2CC2C(F)(F)F)c(=O)c2c(C)c(Cn3nc[nH]c3=O)sc21 (single isomer, unassigned) [Example 299, 1-(2-Methoxyethyl)-5-methyl-6-[(5-oxo-4,5-dihydro-H-1,2,4-triazol-1-yl)methyl]-3-[2-(trifluoromethyl)cyclopropyl]thieno[2,3-d]pyrimidine-2,4(1H,3H)-dione]
24 | 7.19 | CCC1CC1n1c(=O)c2c(C)c(CN3CCNC3=O)sc2n(CCOC)c1=O (single isomer, unassigned) [Example 301, 3-(2-Ethylcyclopropyl)-1-(2-methoxyethyl)-5-methyl-6-[(2-oxoimidazolidin-1-yl)methyl]thieno[2,3-d]pyrimidine-2,4(1H,3H)-dione]
25 | 6.46 | CCC1CC1n1c(=O)c2c(C)c(Cn3nc[nH]c3=O)sc2n(CCOC)c1=O (single isomer, unassigned) [Example 304, 3-(2-Ethylcyclopropyl)-1-(2-methoxyethyl)-5-methyl-6-[(5-oxo-4,5-dihydro-H-1,2,4-triazol-1-yl)methyl]thieno[2,3-d]pyrimidine-2,4(1H,3H)-dione]
26 | 5.41 | COCCn1c(=O)n(C2CC2OC)c(=O)c2c(C)c(Cn3nc[nH]c3=O)sc21 (single isomer, unassigned) [Example 310, 3-(2-Methoxycyclopropyl)-1-(2-methoxyethyl)-5-methyl-6-[(5-oxo-4,5-dihydro-1H-1,2,4-triazol-1-yl)methyl]thieno[2,3-d]pyrimidine-2,4(1H,3H)-dione]
